Earlier results, collected in publication PMC7913621 (Molecules, 2021).

Tests used:
PDE = conditions: read-out: PDE inhibition activity IC50; cited from earlier work
[1] = system: colon cancer cell line HT29; conditions: read-out: cytotoxic effect IC50; cited from earlier work
PDE5A1 = conditions: read-out: PDE5A1 inhibition IC50; cited from earlier work
AChE = conditions: read-out: AChE inhibition IC50; cited from earlier work

Row | SMILES | IC50 (PDE) [nM] | IC50 [1] [nM] | IC50 (PDE5A1) [nM] | IC50 (AChE) [nM]
1 | CCN1CC(=O)N2C(Cc3c([nH]c4ccccc34)C2c2ccccc2Br)C1=O (stereo not shown) [Compound 3] | 60 | 25500 | – | –
2 | O=C1C2Cc3c([nH]c4ccccc34)C(c3ccc4c(c3)OCO4)N2C(=O)CN1CCC1CCN(Cc2ccccc2)CC1 (stereo not shown) [Compound 5] | – | – | 1530 | 32
